From ChEMBL document CHEMBL4507285, “Data for DCP probe MRL-SYKi” (2021)
Calls of active or inactive are those of the source. The calls are words filed in the database; no cut-off is given here.

How the values were obtained:
[1] = biological target: Homeodomain-interacting protein kinase 2 (Homo sapiens) (UniProt Q9H2X6); conditions: Compound concentration 100.0 nM
[2] = biological target: Cyclin-dependent kinase 4 (Homo sapiens) (UniProt P11802); conditions: Compound concentration 100.0 nM
[3] = biological target: Serine/threonine-protein kinase N2 (Homo sapiens) (UniProt Q16513); conditions: Compound concentration 100.0 nM
[4] = biological target: Casein kinase II subunit alpha (Homo sapiens) (UniProt P68400); conditions: Compound concentration 100.0 nM
Sequence of Casein kinase II subunit alpha (Homo sapiens) (P68400 whole entry, looked up): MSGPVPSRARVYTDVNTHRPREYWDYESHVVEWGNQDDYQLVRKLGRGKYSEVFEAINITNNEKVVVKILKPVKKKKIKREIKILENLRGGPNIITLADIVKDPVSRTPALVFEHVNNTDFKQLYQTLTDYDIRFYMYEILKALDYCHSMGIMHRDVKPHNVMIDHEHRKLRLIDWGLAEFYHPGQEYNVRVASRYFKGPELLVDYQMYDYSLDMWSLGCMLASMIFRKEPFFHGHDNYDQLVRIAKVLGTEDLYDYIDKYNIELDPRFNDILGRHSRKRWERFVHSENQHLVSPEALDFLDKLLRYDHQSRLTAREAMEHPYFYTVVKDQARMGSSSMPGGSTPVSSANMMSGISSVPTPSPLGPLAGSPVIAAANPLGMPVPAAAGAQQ

[5] = biological target: Serine/threonine-protein kinase TNNI3K (Homo sapiens) (UniProt Q59H18); conditions: Compound concentration 100.0 nM
[6] = biological target: Activin receptor type-2B (Homo sapiens) (UniProt Q13705); conditions: Compound concentration 100.0 nM
[7] = biological target: Serine/threonine-protein kinase B-raf (Homo sapiens) (UniProt P15056); conditions: Compound concentration 100.0 nM
[8] = biological target: Serine/threonine-protein kinase VRK2 (Homo sapiens) (UniProt Q86Y07); conditions: Compound concentration 100.0 nM
[9] = biological target: Serine/threonine-protein kinase MAK (Homo sapiens) (UniProt P20794); conditions: Compound concentration 100.0 nM
[10] = biological target: Ephrin type-A receptor 3 (Homo sapiens) (UniProt P29320); conditions: Compound concentration 100.0 nM
[11] = biological target: Tyrosine-protein kinase ABL1 (Homo sapiens) (UniProt P00519); conditions: Compound concentration 100.0 nM
[12] = biological target: Platelet-derived growth factor receptor alpha (Homo sapiens) (UniProt P16234); conditions: Compound concentration 100.0 nM
[13] = biological target: Serine/threonine-protein kinase PAK 2 (Homo sapiens) (UniProt Q13177); conditions: Compound concentration 100.0 nM
Sequence of Serine/threonine-protein kinase PAK 2 (Homo sapiens) (Q13177 whole entry): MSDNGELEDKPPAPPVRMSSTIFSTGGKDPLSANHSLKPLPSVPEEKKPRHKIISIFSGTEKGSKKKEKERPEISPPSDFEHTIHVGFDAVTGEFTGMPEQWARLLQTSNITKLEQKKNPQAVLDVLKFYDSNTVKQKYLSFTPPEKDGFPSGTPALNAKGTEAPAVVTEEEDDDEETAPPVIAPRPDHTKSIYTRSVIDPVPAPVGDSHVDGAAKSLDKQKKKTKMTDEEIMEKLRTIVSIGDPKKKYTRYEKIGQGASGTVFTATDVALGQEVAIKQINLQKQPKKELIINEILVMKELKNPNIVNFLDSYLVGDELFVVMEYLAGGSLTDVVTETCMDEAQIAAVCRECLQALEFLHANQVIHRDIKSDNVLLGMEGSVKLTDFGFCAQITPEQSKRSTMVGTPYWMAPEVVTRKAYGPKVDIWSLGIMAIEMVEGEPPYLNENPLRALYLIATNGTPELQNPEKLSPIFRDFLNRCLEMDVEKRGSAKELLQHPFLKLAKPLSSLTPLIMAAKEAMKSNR

[14] = biological target: Calcium/calmodulin-dependent protein kinase type 1 (Homo sapiens) (UniProt Q14012); conditions: Compound concentration 100.0 nM
[15] = biological target: Glycogen synthase kinase-3 alpha (Homo sapiens) (UniProt P49840); conditions: Compound concentration 100.0 nM
[16] = biological target: Dual specificity testis-specific protein kinase 1 (Homo sapiens) (UniProt Q15569); conditions: Compound concentration 100.0 nM
Sequence of Dual specificity testis-specific protein kinase 1 (Homo sapiens) (Q15569 whole entry, looked up, canonical isoform): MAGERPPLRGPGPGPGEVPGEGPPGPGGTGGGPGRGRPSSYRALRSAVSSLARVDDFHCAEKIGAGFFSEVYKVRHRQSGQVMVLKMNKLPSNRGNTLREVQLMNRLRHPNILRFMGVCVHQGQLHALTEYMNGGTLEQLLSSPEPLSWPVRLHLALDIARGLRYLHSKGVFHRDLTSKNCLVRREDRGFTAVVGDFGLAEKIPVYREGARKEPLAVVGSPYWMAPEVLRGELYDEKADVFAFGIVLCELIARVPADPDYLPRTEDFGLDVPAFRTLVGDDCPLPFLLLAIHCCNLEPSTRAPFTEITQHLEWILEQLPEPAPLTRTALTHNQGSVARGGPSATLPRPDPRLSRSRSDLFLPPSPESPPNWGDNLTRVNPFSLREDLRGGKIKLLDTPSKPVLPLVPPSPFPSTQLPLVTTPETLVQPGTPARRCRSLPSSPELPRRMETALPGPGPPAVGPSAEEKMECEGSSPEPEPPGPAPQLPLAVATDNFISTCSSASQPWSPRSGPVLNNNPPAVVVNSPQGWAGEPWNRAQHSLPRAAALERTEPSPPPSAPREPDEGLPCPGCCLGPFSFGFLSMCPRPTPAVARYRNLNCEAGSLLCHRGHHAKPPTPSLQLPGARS

[17] = test system: Phosphatidylinositol 4,5-bisphosphate 3-kinase catalytic subunit alpha isoform (Homo sapiens), P42336 [E545K]; conditions: Compound concentration 100.0 nM
[18] = biological target: Homeodomain-interacting protein kinase 3 (Homo sapiens) (UniProt Q9H422); conditions: Compound concentration 100.0 nM
[19] = biological target: Dual specificity protein kinase CLK1 (Homo sapiens) (UniProt P49759); conditions: Compound concentration 100.0 nM
Sequence of Dual specificity protein kinase CLK1 (Homo sapiens) (P49759 whole entry, looked up): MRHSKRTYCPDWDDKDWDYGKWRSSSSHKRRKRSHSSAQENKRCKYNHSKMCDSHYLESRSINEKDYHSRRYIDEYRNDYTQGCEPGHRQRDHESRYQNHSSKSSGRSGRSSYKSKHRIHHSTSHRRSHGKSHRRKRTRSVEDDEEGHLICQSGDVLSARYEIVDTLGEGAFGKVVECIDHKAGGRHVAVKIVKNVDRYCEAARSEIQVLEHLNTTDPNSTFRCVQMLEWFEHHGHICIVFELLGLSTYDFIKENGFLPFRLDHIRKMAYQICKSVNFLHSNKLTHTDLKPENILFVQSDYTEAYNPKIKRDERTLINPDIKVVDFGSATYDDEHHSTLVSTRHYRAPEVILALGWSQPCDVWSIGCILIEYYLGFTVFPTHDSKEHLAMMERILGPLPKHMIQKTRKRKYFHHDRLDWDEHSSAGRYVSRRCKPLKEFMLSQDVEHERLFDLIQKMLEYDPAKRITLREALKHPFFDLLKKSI

[20] = biological target: Tyrosine-protein kinase SYK (Homo sapiens, UniProt P43405); test: Human SKY enzyme assay
[21] = biological target: Dual specificity mitogen-activated protein kinase kinase 6 (Homo sapiens) (UniProt P52564); conditions: Compound concentration 100.0 nM
[22] = biological target: Serine/threonine-protein kinase PAK 4 (Homo sapiens) (UniProt O96013); conditions: Compound concentration 100.0 nM
[23] = biological target: D(1A) dopamine receptor (Homo sapiens) (UniProt P21728); conditions: Compound concentration 10.0 uM
[24] = biological target: Maternal embryonic leucine zipper kinase (Homo sapiens) (UniProt Q14680); conditions: Compound concentration 100.0 nM
[25] = biological target: D(2) dopamine receptor (Homo sapiens) (UniProt P14416); conditions: Compound concentration 10.0 uM
Sequence of D(2) dopamine receptor (Homo sapiens) (P14416 whole entry): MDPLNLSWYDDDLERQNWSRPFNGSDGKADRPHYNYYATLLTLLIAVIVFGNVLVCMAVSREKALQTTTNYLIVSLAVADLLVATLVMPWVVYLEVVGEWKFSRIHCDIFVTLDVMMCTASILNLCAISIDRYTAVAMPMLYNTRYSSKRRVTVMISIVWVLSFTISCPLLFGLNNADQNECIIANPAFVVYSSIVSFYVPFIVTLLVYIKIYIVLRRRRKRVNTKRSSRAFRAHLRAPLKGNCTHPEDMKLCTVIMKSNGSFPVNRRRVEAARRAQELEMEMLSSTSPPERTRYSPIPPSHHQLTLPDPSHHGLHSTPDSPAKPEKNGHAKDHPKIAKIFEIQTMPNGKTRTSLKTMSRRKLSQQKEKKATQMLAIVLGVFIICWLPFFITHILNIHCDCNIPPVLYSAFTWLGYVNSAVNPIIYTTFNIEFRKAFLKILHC

[26] = biological target: Hepatocyte growth factor receptor (Homo sapiens) (UniProt P08581); conditions: Compound concentration 100.0 nM
[27] = biological target: Aurora kinase C (Homo sapiens) (UniProt Q9UQB9); conditions: Compound concentration 100.0 nM
[28] = biological target: Platelet-derived growth factor receptor beta (Homo sapiens) (UniProt P09619); conditions: Compound concentration 100.0 nM
[29] = biological target: Serine/threonine-protein kinase WNK1 (Homo sapiens) (UniProt Q9H4A3); conditions: Compound concentration 100.0 nM
[30] = test system: Receptor-type tyrosine-protein kinase FLT3 (Homo sapiens), P36888 [D835H]; conditions: Compound concentration 100.0 nM
[31] = biological target: Fibroblast growth factor receptor 3 (Homo sapiens) (UniProt P22607); conditions: Compound concentration 100.0 nM
[32] = biological target: Mu-type opioid receptor (Homo sapiens) (UniProt P35372); conditions: Compound concentration 10.0 uM
[33] = biological target: GABA-A receptor; anion channel (Rattus norvegicus) (UniProt O09028+P15431+P18506+P18508+P19969+P20236+P23574+P23576+P28471+P28473+P30191+P62813+P63079+P63138+Q91ZM7+Q9ES14); conditions: Compound concentration 10.0 uM
[34] = biological target: Mitogen-activated protein kinase 14 (Homo sapiens) (UniProt Q16539); conditions: Compound concentration 100.0 nM
[35] = biological target: Receptor-type tyrosine-protein kinase FLT3 (Homo sapiens) (UniProt P36888); conditions: Compound concentration 100.0 nM
[36] = biological target: Death-associated protein kinase 3 (Homo sapiens) (UniProt O43293); conditions: Compound concentration 100.0 nM
[37] = biological target: Serine/threonine-protein kinase SIK1 (Homo sapiens) (UniProt P57059); conditions: Compound concentration 100.0 nM
[38] = biological target: Casein kinase I isoform gamma-3 (Homo sapiens) (UniProt Q9Y6M4); conditions: Compound concentration 100.0 nM
Sequence of Casein kinase I isoform gamma-3 (Homo sapiens) (Q9Y6M4 whole entry, looked up, canonical isoform): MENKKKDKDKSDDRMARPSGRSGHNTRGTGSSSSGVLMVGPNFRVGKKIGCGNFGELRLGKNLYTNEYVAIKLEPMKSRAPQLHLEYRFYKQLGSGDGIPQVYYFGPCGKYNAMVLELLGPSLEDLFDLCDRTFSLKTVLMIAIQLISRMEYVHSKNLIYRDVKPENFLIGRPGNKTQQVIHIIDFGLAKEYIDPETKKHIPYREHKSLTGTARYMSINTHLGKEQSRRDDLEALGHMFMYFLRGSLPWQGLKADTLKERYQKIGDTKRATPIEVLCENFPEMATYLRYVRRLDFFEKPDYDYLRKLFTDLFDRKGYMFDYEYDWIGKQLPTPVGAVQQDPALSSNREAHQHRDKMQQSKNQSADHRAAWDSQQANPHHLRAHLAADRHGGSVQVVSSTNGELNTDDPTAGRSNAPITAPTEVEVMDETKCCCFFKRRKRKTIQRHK

[39] = biological target: Serine/threonine-protein kinase PLK3 (Homo sapiens) (UniProt Q9H4B4); conditions: Compound concentration 100.0 nM
[40] = biological target: Serine/threonine-protein kinase WNK4 (Homo sapiens) (UniProt Q96J92); conditions: Compound concentration 100.0 nM
[41] = biological target: Mitogen-activated protein kinase 15 (Homo sapiens) (UniProt Q8TD08); conditions: Compound concentration 100.0 nM
Sequence of Mitogen-activated protein kinase 15 (Homo sapiens) (Q8TD08 whole entry): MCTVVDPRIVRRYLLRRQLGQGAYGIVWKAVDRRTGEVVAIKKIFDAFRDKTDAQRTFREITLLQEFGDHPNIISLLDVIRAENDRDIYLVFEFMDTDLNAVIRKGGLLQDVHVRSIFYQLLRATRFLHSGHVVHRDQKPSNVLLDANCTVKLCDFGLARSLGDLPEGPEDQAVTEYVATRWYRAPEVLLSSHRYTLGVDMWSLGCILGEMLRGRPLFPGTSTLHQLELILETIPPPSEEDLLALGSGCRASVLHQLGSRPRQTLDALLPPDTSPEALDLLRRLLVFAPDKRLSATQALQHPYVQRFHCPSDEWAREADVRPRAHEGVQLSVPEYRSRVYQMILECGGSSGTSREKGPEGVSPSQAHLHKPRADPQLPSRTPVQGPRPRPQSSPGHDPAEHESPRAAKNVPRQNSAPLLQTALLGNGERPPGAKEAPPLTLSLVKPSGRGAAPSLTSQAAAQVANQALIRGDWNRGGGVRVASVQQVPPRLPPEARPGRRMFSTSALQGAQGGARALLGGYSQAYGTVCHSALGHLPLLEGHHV

[42] = biological target: Citron Rho-interacting kinase (Homo sapiens) (UniProt O14578); conditions: Compound concentration 100.0 nM
[43] = biological target: Mitogen-activated protein kinase kinase kinase kinase 4 (Homo sapiens) (UniProt O95819); conditions: Compound concentration 100.0 nM
Sequence of Mitogen-activated protein kinase kinase kinase kinase 4 (Homo sapiens) (O95819 2-1239 limits assumed): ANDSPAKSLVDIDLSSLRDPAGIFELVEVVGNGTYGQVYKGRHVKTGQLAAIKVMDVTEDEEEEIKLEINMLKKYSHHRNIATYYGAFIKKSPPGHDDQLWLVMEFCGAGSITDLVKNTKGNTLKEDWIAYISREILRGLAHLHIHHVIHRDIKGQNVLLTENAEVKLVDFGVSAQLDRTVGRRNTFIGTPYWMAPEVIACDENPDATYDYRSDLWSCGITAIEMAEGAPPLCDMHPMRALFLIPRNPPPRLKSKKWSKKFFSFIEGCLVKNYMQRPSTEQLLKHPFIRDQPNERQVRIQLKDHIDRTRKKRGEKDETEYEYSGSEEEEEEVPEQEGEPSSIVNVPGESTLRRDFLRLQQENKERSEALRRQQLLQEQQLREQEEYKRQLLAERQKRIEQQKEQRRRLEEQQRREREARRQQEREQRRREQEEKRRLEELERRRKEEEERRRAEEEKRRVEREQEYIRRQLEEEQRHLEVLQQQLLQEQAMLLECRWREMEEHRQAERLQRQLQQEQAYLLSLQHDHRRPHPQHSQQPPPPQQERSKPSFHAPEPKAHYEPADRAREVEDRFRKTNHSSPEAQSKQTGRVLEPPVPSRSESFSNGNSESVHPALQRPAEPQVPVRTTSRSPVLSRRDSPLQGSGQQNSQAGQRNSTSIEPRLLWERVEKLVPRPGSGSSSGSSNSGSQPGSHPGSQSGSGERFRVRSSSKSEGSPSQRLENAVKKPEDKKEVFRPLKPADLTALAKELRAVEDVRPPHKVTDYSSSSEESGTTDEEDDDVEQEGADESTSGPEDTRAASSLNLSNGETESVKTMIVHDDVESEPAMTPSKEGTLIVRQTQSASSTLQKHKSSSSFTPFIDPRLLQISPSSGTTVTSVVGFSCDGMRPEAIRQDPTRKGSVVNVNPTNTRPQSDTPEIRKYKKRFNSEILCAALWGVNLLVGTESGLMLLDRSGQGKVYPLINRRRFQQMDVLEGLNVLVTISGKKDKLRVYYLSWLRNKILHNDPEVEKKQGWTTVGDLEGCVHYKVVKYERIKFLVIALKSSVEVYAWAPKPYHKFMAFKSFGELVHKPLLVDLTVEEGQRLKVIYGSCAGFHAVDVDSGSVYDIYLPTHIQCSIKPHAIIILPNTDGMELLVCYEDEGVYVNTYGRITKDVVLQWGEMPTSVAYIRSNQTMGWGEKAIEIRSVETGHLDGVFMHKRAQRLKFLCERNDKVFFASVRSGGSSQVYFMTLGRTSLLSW

[44] = test system: Epidermal growth factor receptor (Homo sapiens), P00533 [UNDEFINED MUTATION]; conditions: Compound concentration 100.0 nM

Sequence of Cyclin-dependent kinase 4 (Homo sapiens) (P11802 whole entry): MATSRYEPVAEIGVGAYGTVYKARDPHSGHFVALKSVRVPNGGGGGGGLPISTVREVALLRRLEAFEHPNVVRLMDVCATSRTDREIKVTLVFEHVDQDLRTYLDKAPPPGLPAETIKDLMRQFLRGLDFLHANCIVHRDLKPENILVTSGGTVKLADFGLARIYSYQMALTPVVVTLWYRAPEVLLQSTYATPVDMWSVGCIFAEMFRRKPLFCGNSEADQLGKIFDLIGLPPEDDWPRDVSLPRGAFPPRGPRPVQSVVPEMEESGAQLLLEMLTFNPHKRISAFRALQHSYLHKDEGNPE

Cc1ccc(-c2cnc([C@@]3(O)CC[C@H](C(=O)O)C(C)(C)C3)s2)cc1Nc1cccc(C(F)(F)F)n1 [MRL-SYKi-NC]
residual activity [1]: 73.5% | residual activity [2]: 100% | residual activity [3]: 96.3% | residual activity [4]: 100% | residual activity [5]: 100% | residual activity [6]: 100% | residual activity [7]: 100% | residual activity [8]: 100% | residual activity [9]: 93.9% | residual activity [10]: 93.7% | residual activity [11]: 78.4% | residual activity [12]: 92.6% | residual activity [13]: 89.5% | residual activity [14]: 75.3% | residual activity [15]: 86.8% | residual activity [16]: 95.2% | residual activity [17]: 97.7% | residual activity [18]: 88.3% | residual activity [19]: 83.8% | IC50 [20]: 4700 nM (not active) | residual activity [21]: 89.3% | residual activity [22]: 100% | inhibition [23]: 6.26% | residual activity [24]: 100% | inhibition [25]: -5.34% | residual activity [26]: 100% | residual activity [27]: 100% | residual activity [28]: 100% | residual activity [29]: 100% | residual activity [30]: 100% | residual activity [31]: 100% | inhibition [32]: 8.33% | inhibition [33]: 19% | residual activity [34]: 97% | residual activity [35]: 100% | residual activity [36]: 92.7% | residual activity [37]: 100% | residual activity [38]: 89.1% | residual activity [39]: 100% | residual activity [40]: 31.8% | residual activity [41]: 80.3% | residual activity [42]: 90.9% | residual activity [43]: 100% | residual activity [44]: 92.1%

Cc1cc(Nc2nccc(C)n2)cc(-c2cnc([C@@]3(O)CC[C@H](C(=O)O)C(C)(C)C3)s2)c1 [MRL-SYKi]
residual activity [1]: 83.5% | residual activity [2]: 76.9% | residual activity [3]: 100% | residual activity [4]: 100% | residual activity [5]: 100% | residual activity [6]: 82.8% | residual activity [7]: 100% | residual activity [8]: 100% | residual activity [9]: 73.8% | residual activity [10]: 100% | residual activity [11]: 45.3% | residual activity [12]: 100% | residual activity [13]: 100% | residual activity [14]: 99.3% | residual activity [15]: 100% | residual activity [16]: 100% | residual activity [17]: 68.3% | residual activity [18]: 87.3% | residual activity [19]: 97.9% | IC50 [20]: 0.9 nM (active) | residual activity [21]: 100% | residual activity [22]: 89.8% | inhibition [23]: -7.4% | residual activity [24]: 88% | inhibition [25]: -3.52% | residual activity [26]: 100% | residual activity [27]: 100% | residual activity [28]: 100% | residual activity [29]: 100% | residual activity [30]: 70.7% | residual activity [31]: 88.2% | inhibition [32]: 17.3% | inhibition [33]: 25.9% | residual activity [34]: 100% | residual activity [35]: 94.2% | residual activity [36]: 100% | residual activity [37]: 94.3% | residual activity [38]: 99.9% | residual activity [39]: 74.6% | residual activity [40]: 100% | residual activity [41]: 100% | residual activity [42]: 100% | residual activity [43]: 100% | residual activity [44]: 100%
